{
  "source": "paper PMC6017461",
  "about": "“Multi-Target Anti-Alzheimer Activities of Four Prenylated Compounds from Psoralea Fructus” (Molecules : A Journal of Synthetic Chemistry and Natural …, 2018)",
  "molecular_target": "T1, amyloid β-peptide 42 (Aβ42) (Homo sapiens, UniProt P05067)",
  "T1 construct": "gene APP; synthetic human Aβ42",
  "T1 sequence (P05067 672-713 limits assumed)": "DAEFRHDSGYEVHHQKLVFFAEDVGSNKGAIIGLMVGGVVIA",
  "test": "Thioflavin T fluorescence aggregation assay with synthetic Aβ[…], positive control",
  "assay_type": "biochemical",
  "data": [
    {"smiles": "COc1cc(/C=C/C(=O)CC(=O)/C=C/c2ccc(O)c(OC)c2)ccc1O", "note": "[curcumin]", "values": [
      {"measurement": "Thioflavin T fluorescence aggregation assay with synthetic Aβ42, positive contro", "result": "which were comparable to the positive control curcumin"}
    ]}
  ]
}
